# Values of other authors as cited in patent US20080031951A1, “Compositions and methods for the inhibition of phospholipase A2” (priority 2005, published 2008).
# Assays:
# [1] = system: intestine injury following ischemia and reperfusion; conditions: rats, oral administration
# [2] = system: colitis; conditions: rats, dextran sulfate- and trinitrobenzene sulfonic acid-induced
# [3] = system: toxoplasmosis; conditions: injection, murine toxoplasmosis model
# [4] = target: T1, hGIIA (Homo sapiens, UniProt P14555); set-up: host or cells: transgenic mice overexpressing hGIIA, blood; conditions: intravenous administration, transgenic mice overexpressing hGIIA
# [5] = system: sPLA2 activity; conditions: guinea pig model of ARDS
# [6] = system: release of thromboxane A2 triggered by exogenously added hGIIA; conditions: guinea pig BAL fluids containing macrophages, eosinophils and epithelial cells
# [7] = system: hyperalgesia; conditions: lumbar intrathecal administration, 3 rat models of hyperalgesia
# [8] = system: rheumatoid arthritis
# [9] = system: asthma
# [10] = target: T1, hGIIA; conditions: more potent than LY311727
# [11] = system: sepsis and organ failure; conditions: humans with sepsis and organ failure
# [12] = target: mGIIA (Mus musculus, UniProt P31482)
# [13] = target: mGIID (Mus musculus, UniProt Q9WVF6)
# [14] = target: mGV (Mus musculus, UniProt P97391)
# [15] = target: mGX (Mus musculus, UniProt Q9QXX3)
# [16] = system: ear edema; conditions: mice, tetracenoylphorbol-13-acetate induced
# [17] = target: mGIIE (Mus musculus, UniProt Q9QUL3)
# [18] = system: pleurisy; conditions: rat, carageenin-induced pleurisy
# [19] = target: T2, porcine pancreatic group IB sPLA2 / M-type receptor (Sus scrofa, UniProt P00592); conditions: mouse cells expressing the M-type receptor; read-out: IC50, block of binding of porcine pancreatic group IB sPLA2 to M-type receptor
# T2 construct: host or cells: mouse cells expressing the M-type receptor
# [20] = system: septic shock; conditions: LPS injection, wild-type mice
# [21] = target: group X sPLA2 / M-type receptor; conditions: mouse cells expressing the M-type receptor; read-out: IC50, block of binding of group X sPLA2 to M-type receptor
# [22] = system: PGE2 production in rat gastric epithelial cells; conditions: induced by TGF-α and IL-1, rat gastric epithelial cells
# T1 sequence (P14555 21-144): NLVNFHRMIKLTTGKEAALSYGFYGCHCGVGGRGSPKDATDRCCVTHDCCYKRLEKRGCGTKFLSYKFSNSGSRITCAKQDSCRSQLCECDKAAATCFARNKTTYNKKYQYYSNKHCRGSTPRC
# Chain of mGIIA (P31482 22-146): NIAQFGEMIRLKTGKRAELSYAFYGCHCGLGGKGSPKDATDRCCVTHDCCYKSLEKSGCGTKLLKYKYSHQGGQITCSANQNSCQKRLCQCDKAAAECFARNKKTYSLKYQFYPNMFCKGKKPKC
# T2 sequence (P00592 23-146): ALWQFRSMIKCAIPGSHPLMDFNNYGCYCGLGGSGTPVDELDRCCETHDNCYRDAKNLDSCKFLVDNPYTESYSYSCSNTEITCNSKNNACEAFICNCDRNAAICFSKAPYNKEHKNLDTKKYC
# Chain of mGV (P97391 21-137): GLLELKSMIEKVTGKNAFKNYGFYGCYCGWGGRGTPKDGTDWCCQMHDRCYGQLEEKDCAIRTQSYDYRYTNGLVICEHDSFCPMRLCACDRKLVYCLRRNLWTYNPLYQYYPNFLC
# Chain of mGX (Q9QXX3 29-151): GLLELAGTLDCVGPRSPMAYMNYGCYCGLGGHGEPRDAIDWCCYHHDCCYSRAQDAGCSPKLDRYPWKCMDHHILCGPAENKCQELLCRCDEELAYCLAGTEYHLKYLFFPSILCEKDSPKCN
# Chain of mGIIE (Q9QUL3 20-142): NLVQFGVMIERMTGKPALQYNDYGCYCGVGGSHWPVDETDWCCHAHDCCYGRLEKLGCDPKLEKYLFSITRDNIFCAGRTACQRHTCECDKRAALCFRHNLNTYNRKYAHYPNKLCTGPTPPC
# Chain of mGIID (Q9WVF6 20-144): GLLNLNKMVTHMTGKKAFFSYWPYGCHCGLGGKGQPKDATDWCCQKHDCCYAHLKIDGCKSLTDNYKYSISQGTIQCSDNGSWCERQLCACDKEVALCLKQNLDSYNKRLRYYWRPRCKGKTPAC
smiles,measurement,setting,value
O=C(O)CC[C@@H](Cc1ccc(OCc2ccccc2)cc1)NC(=O)CCCCCCc1ccccc1 [5-(4-benzyloxyphenyl)-4s-(7-phenylheptanoylamino)-pentanoic acid],protection of intestine from ischemia and reperfusion injury,[1],preserved rats intestine from injury
same,protection from colitis,[2],protected rats
CCc1c(CC(N)=O)c2cc(OCCCP(=O)(O)O)ccc2n1Cc1ccccc1 [LY311727],mortality,[3],earlier mortality
same,PLA2 catalytic activity in blood,[4],loss of PLA2 catalytic activity in blood
same,inhibition of sPLA2 activity induced by lipopolysaccharides,[5],could also inhibit
same,inhibition of release of thromboxane A2,[6],able to inhibit
same,inflammation-related symptoms,[7],attenuated all the inflammation-related symptoms observed
CCc1c(C(=O)C(N)=O)c2c(OCC(=O)OC)cccc2n1Cc1ccccc1 [LY333013],protection from colitis,[2],protected rats
same,"effect on rheumatoid arthritis pathology, intravenous",[8]; administered intravenously,positive impacts on the pathology
same,"effect on rheumatoid arthritis pathology, oral","[8]; orally distributed, patients with rheumatoid arthritis","significant reduction of the pathology during the first week of trial, but the benefits were lost thereafter"
same,tolerability,[9]; in these patients,well tolerated
same,benefit on inhaled allergen challenge,[9]; subjects with asthma,failed to show any benefit
Cc1c(C(=O)C(N)=O)c2c(OCC(=O)O)cccc2n1Cc1ccccc1-c1ccccc1 [Me-indoxam],potency to inhibit hGIIA relative to LY311727,[10],about 20 fold
CCc1c(C(=O)C(N)=O)c2c(OCC(=O)[O-])cccc2n1Cc1ccccc1.[Na+] [S-5920/LY315920Na],clinical outcome versus placebo,[11],no significant differences
CCCCCCCCCCCC(=O)c1c(O)c(C(=O)CCCCCCCCCCC)c(O)c(C2CC(c3ccc(O)cc3)Oc3cc(O)ccc32)c1O (stereo not shown) [YM-26734],inhibition of mGIIA,[12],potent inhibitor
same,inhibition of mGIID,[13],potent inhibitor
same,inhibition of mGV,[14],potent inhibitor
same,inhibition of mGX,[15],potent inhibitor
same,ear edema,[16],reduced
same,inhibition of mGIIE,[17],potent inhibitor
same,accumulation of exudate fluid and leukocytes,[18],significantly decreased
CCc1c(C(=O)C(N)=O)c2c(OCC(=O)O)cccn2c1Cc1ccccc1-c1ccccc1 [indoxam],IC50,[19],130 nM
same,septic shock,[20],attenuated
same,IC50,[21],900 nM
same,PGE2 production,[22],inhibited
